Patent EP3771714A1, “NITROGEN-CONTAINING HETEROCYCLES AS PESTICIDES” (Bayer AG, priority 2019, dated 2021)
“And” between values parts separate entries of the source, which are not always exact repeats. Identical values can stand only once. Like-named read-outs stand apart in the source and are kept apart here. Each block holds one molecule with its values, some of them ahead of it.

Tests used:
Ctenocephalides felis = Ctenocephalides felis oral test; format: in vivo; conditions: 100 ppm in citrated cattle blood; adult cat fleas; after 2 days
Protocol: Ctenocephalides felis - Oraltest
Zwecks Herstellung einer zweckmäßigen Wirkstoffzubereitung vermischt man 10 mg Wirkstoff mit 0,5 ml Dimethylsulfoxid. Durch Verdünnen mit citriertem Rinderblut erhält man die gewünschte Konzentration.
Ca. 20 nüchterne adulte Katzenflöhe (Ctenocephalides felis) werden in eine Kammer eingesetzt, die oben und unten mit Gaze verschlossen ist. Auf die Kammer wird ein Metallzylinder gestellt, dessen Unterseite mit Parafilm verschlossen ist. Der Zylinder enthält die Blut-Wirkstoffzubereitung, die von den Flöhen durch die Parafilmmembran aufgenommen werden kann.
Nach 2 Tagen wird die Abtötung in % bestimmt. Dabei bedeutet 100 %, dass alle Flöhe abgetötet wurden; 0 % bedeutet, dass keiner der Flöhe abgetötet wurde.

Phaedon cochleariae = Phaedon cochleariae spray test; format: in vivo; conditions: 500 g/ha; Chinese cabbage leaf discs (Brassica pekinensis), larvae; after 7 days
Source text: Bei diesem Test zeigten z. B. die folgenden Verbindungen der Herstellungsbeispiele Wirkung von 100 % bei einer Aufwandmenge von 500 g/ha: 1. Phaedon cochleariae - Sprühtest
(§1) Zur Herstellung einer zweckmäßigen Wirkstoffzubereitung löst man 1 Gewichtsteil Wirkstoff mit den angegebenen Gewichtsteilen Lösungsmittel und füllt mit Wasser, welches eine Emulgatorkonzentration von 1000 ppm enthält, bis zum Erreichen der gewünschten Konzentration auf. Zur Herstellung weiterer Testkonzentrationen wird mit emulgatorhaltigem Wasser verdünnt.
Chinakohlblattscheiben (Brassica pekinensis) werden mit einer Wirkstoffzubereitung der gewünschten Konzentration gespritzt und nach dem Abtrocknen mit Larven des Meerrettichblattkäfers (Phaedon cochleariae) besetzt.
Nach 7 Tagen wird die Wirkung in % bestimmt. Dabei bedeutet 100 %, dass alle Käferlarven abgetötet wurden; 0 % bedeutet, dass keine Käferlarven abgetötet wurden.

Myzus persicae [1] = experiment: Myzus persicae oral test; format: in vivo; conditions: 20 ppm; mixed population, uptake through Parafilm; after 5 days
Protocol: Bei diesem Test zeigten z. B. die folgenden Verbindungen der Herstellungsbeispiele Wirkung von 100 % bei einer Aufwandmenge von 500 g/ha (=160 µg/Kavität): 1, 2, 3, 5, 6, 7, 8, 9, 10, 11, 12. Myzus persicae - Oraltest
Zur Herstellung einer zweckmäßigen Wirkstoffzubereitung löst man 1 Gewichtsteil Wirkstoff mit den angegebenen Gewichtsteilen Lösungsmittel und füllt mit Wasser bis zum Erreichen der gewünschten Konzentration auf.
50 µl der Wirkstoffzubereitung werden in Mikrotiterplatten überführt und mit 150µl IPL41Insektenmedium (33% + 15% Zucker) auf eine Endvolumen von 200 µl aufgefüllt. Anschließend werden die Platten mit Parafilm verschlossen, durch den eine gemischte Population der Grünen Pfirsichblattlaus (Myzus persicae), die sich in einer zweiten Mikrotiterplatte befindet, hindurchstechen und die Lösung aufnehmen kann.
(§2) Nach 5 Tagen wird die Wirkung in % bestimmt. Dabei bedeutet 100 %, dass alle Blattläuse abgetötet wurden; 0 % bedeutet, dass keine Blattläuse abgetötet wurden.

Nezara viridula = Nezara viridula spray test; format: in vivo; conditions: 500 g/ha; barley plants (Hordeum vulgare) with larvae; after 4 days
Source text: Bei diesem Test zeigten z. B. die folgenden Verbindungen der Herstellungsbeispiele Wirkung von 90 % bei einer Aufwandmenge von 100 g/ha: 1, 5, 6, 9. Nezara viridula -Sprühtest
as §1
Gerstenpflanzen (Hordeum vulgare), die mit Larven der Grünen Reiswanze (Nezara viridula) infiziert sind, werden mit einer Wirkstoffzubereitung der gewünschten Konzentration gespritzt.
Nach 4 Tagen wird die Wirkung in % bestimmt. Dabei bedeutet 100 %, dass alle Reiswanzen abgetötet wurden; 0 % bedeutet, dass keine Reiswanzen abgetötet wurden.

Myzus persicae [2] = experiment: Myzus persicae spray test; format: in vivo; conditions: 100 g/ha; Chinese cabbage leaf discs (Brassica pekinensis), all stages; after 5 days
Source text: Bei diesem Test zeigten z. B. die folgenden Verbindungen der Herstellungsbeispiele Wirkung von 100 % bei einer Aufwandmenge von 20 ppm: 1. Myzus persicae - Sprühtest
as §1
Chinakohlblattscheiben (Brassica pekinensis), die von allen Stadien der Grünen Pfirsichblattlaus (Myzus persicae) befallen sind, werden mit einer Wirkstoffzubereitung der gewünschten Konzentration gespritzt.
as §2

Diabrotica balteata = Diabrotica balteata spray test; format: in vivo; conditions: 500 g/ha (=160 µg/Kavität); wheat (Triticum aestivum) with beetle larvae; after 7 days; 100 % = all wheat plants grown as in untreated, uninfected control
Source text: as §1
Vorgequollene Weizenkörner (Triticum aestivum) werden in einer mit Agar und etwas Wasser gefüllten Multiwell-Platte für einen Tag inkubiert (5 Saatkörner pro Kavität). Die gekeimten Weizenkörner werden mit einer Wirkstoffzubereitung der gewünschten Konzentration gespritzt. Anschließend wird jede Kavität mit 10-20 Käferlarven von Diabrotica balteata infiziert.
Nach 7 Tagen wird die Wirkung in % bestimmt. Dabei bedeutet 100 %, dass alle Weizenpflanzen wie in der unbehandelten, nicht infizierten Kontrolle gewachsen sind; 0 % bedeutet, dass keine Weizenpflanze gewachsen ist.

Tetranychus urticae = Tetranychus urticae spray test, OP-resistant; format: in vivo; conditions: 500 g/ha; bean leaf discs (Phaseolus vulgaris), all stages, OP-resistent; after 6 days
Source text: Bei diesem Test zeigten z. B. die folgenden Verbindungen der Herstellungsbeispiele Wirkung von 100 % bei einer Aufwandmenge von 500 g/ha: 1. Tetranychus urticae - Sprühtest, OP-resistent
as §1
Bohnenblattscheiben (Phaseolus vulgaris), die von allen Stadien der Gemeinen Spinnmilbe (Tetranychus urticae) befallen sind, werden mit einer Wirkstoffzubereitung der gewünschten Konzentration gespritzt.
Nach 6 Tagen wird die Wirkung in % bestimmt. Dabei bedeutet 100 %, dass alle Spinnmilben abgetötet wurden; 0 % bedeutet, dass keine Spinnmilben abgetötet wurden.

[3] = logP determination by HPLC on reversed-phase (C18) columns, OECD Guideline 117; format: physicochemical
Source text: Die Eichung erfolgt mit unverzweigten Alkan-2-onen (mit 3 bis 16 Kohlenstoffatomen), deren logP-Werte bekannt sind (Bestimmung der logP-Werte anhand der Retentionszeiten durch lineare Interpolation zwischen zwei aufeinander folgenden Alkanonen).

Nilaparvata lugens = Nilaparvata lugens test; format: in vivo; conditions: 500 g/ha; rice plants (Oryza sativa); after 4 days
Source text: Bei diesem Test zeigten z. B. die folgenden Verbindungen der Herstellungsbeispiele Wirkung von 90 % bei einer Aufwandmenge von 500 g/ha: 1. Nilaparvata lugens -Test
as §1
Reispflanzen (Oryza sativa) werden mit der Wirkstoffzubereitung der gewünschten Konzentration gespritzt und anschließend mit der Braunrückigen Reiszikade (Nilaparvata lugens) infiziert.
Nach 4 Tagen wird die Wirkung in % bestimmt. Dabei bedeutet 100 %, dass alle Reiszikaden abgetötet wurden; 0 % bedeutet, dass keine Reiszikaden abgetötet wurden.

[4] = HPLC-MS (ESI-positiv), acidic or neutral range not given
[5] = HPLC-MS/UPLC-MS neutral (method [b], pH 7,8)
[6] = pH 7.8, HPLC-MS/UPLC-MS neutral (method [b], pH 7,8), read-out: LogP-Wert
[7] = reversed-phase (C18) HPLC column, HPLC-MS (ESI-positiv), acidic or neutral range not given, read-out: LogP-Wert

Structure (SMILES): Cc1csc(N=c2ccccn2-c2ccc(C(F)(F)F)nc2)n1 [Beispiel 1]
Abtötung in % (Wirkung) (Ctenocephalides felis): 80%
Wirkung in % (Phaedon cochleariae): 100%
Wirkung in % (Myzus persicae [1]): 100%
Wirkung in % (Nezara viridula): 90%
Wirkung in % (Myzus persicae [2]): 90%
Wirkung in % (Diabrotica balteata): 100%
Wirkung in % (Tetranychus urticae): 90%
LogP-Wert [3, 4]: LogP-Wert = 1,08
Wirkung in % (Nilaparvata lugens): 100%

Structure (SMILES): FC(F)c1ccc(-n2ccccc2=Nc2nc(C3(F)CC3)cs2)cn1 [Beispiel 2]
Wirkung in % (Diabrotica balteata): 100%
LogP-Wert [3, 5]: LogP-Wert = 3,02

Structure (SMILES): FC(F)(F)c1ccc(-n2ccccc2=Nc2nc(C(F)(F)F)cs2)cn1 [Beispiel 3, 1-[(6-Trifluormethyl-3-pyridyl]-N-(4-trifluormethylthiazol-2-yl))pyridin-2-imin]
Wirkung in % (Myzus persicae [2]): 100%
Wirkung in % (Diabrotica balteata): 100%
LogP-Wert [3, 4]: LogP-Wert = 3,60

Structure (SMILES): FC(F)(F)c1ccc(-n2ccccc2=Nc2ncccn2)cn1 [Beispiel 4, 1-[(6-Trifluormethyl-3-pyridyl]-N-(pyrimid-2-yl))pyridin-2-imin]
LogP-Wert [3, 4]: LogP-Wert = 1,38

Structure (SMILES): CCc1csc(N=c2ccccn2-c2ccc(C(F)(F)F)nc2)n1 [Beispiel 5]
Wirkung in % (Myzus persicae [2]): 90%
Wirkung in % (Diabrotica balteata): 100%
chromatographic logP ([3]; pH 2.7, LogP-Wert (HCOOH)): 1.13

Structure (SMILES): FC(F)(F)c1ccc(-n2ccccc2=Nc2nc(C3CC3)cs2)cn1 [Beispiel 6]
Wirkung in % (Myzus persicae [2]): 90%
Wirkung in % (Diabrotica balteata): 100%
chromatographic logP ([3]; pH 2.7, LogP-Wert (HCOOH)): 1.34

Structure (SMILES): FC(F)(F)c1ccc(-n2ccccc2=Nc2nc(C(F)(F)C(F)(F)F)cs2)cn1 [Beispiel 7]
Wirkung in % (Diabrotica balteata): 100%
chromatographic logP ([3]; pH 2.7, LogP-Wert (HCOOH)): 4.03

Structure (SMILES): N#CC1(c2csc(N=c3ccccn3-c3ccc(C(F)(F)F)nc3)n2)CC1 [Beispiel 8]
Wirkung in % (Myzus persicae [2]): 100%
Wirkung in % (Diabrotica balteata): 100%
chromatographic logP ([3]; pH 2.7, LogP-Wert (HCOOH)): 2.39

Structure (SMILES): FC(F)(F)c1ccc(-n2ccccc2=Nc2nc(C3(F)CC3)cs2)cn1 [Beispiel 9]
Wirkung in % (Myzus persicae [2]): 90%
Wirkung in % (Diabrotica balteata): 100%
chromatographic logP ([3]; pH 2.7, LogP-Wert (HCOOH)): 2.04

Structure (SMILES): CC1(c2csc(N=c3ccccn3-c3ccc(C(F)(F)F)nc3)n2)CC1 [Beispiel 10]
Wirkung in % (Diabrotica balteata): 100%
chromatographic logP ([3]; pH 7.8, LogP-Wert (neutral)): 3.99

Structure (SMILES): CC(C)(C)c1csc(N=c2ccccn2-c2ccc(C(F)(F)F)nc2)n1 [Beispiel 11]
Wirkung in % (Diabrotica balteata): 100%
chromatographic logP ([3]; pH 2.7, LogP-Wert (HCOOH)): 1.47

Structure (SMILES): N#CC1(c2csc(N=c3ccccn3-c3ccc(C(F)F)nc3)n2)CC1 [Beispiel 12]
Wirkung in % (Diabrotica balteata): 100%
chromatographic logP ([3]; pH 7.8, LogP-Wert (neutral)): 2.65

Structure (SMILES): FC(F)(F)c1ccc(-n2ccccc2=S)cn1 [II-1, 6'-Trifluormethyl-[1(2H), 3'-bipyridin]-2-thion]
chromatographic logP [3, 6]: 1.67

Structure (SMILES): FC(F)c1ccc(-n2ccccc2=S)cn1 [II-2, 6'-Difluormethyl-[1(2H), 3'-bipyridin]-2-thion]
LogP-Wert [3]: 1,23
chromatographic logP ([3]; LogP-Wert): 1.18

Structure (SMILES): NC(=S)N=c1ccccn1-c1ccc(C(F)(F)F)nc1 [VII-1, N-[1-[(6-Trifluormethyl-3-pyridinyl)]-2(1H)-pyridinyliden]-thioharnstoff]
LogP-Wert [3, 4]: 1,12 and 1,14

Further lines, results first:

chromatographic logP [3, 7]: 0.57
Structure (SMILES): CSc1cccc[n+]1-c1ccc(C(F)(F)F)nc1 [III-1]

chromatographic logP ([3]; LogP-Wert): 0.04
Structure (SMILES): CSc1cccc[n+]1-c1ccc(C(F)F)nc1 [III-2]

chromatographic logP [3, 7]: 2.17
Structure (SMILES): N=c1ccccn1-c1ccc(C(F)(F)F)nc1 [IV-1, 6'-Trifluormethyl-[1(2H), 3'-bipyridin]-2-imin-hydrogeniodid]

LogP-Wert [3, 5]: 2,39
chromatographic logP [3, 6]: 2.37
Structure (SMILES): N=C(N=c1ccccn1-c1ccc(C(F)(F)F)nc1)SCC(=O)C(F)(F)F [N-[1-[(6-trifluormethyl-3-pyridyl)]-2-pyridyliden]-imidothio-(3,3,3-trifluoro-2-oxopropyl)-ester]

chromatographic logP ([3]; pH 7.8, LogP-Wert): 1.71
Structure (SMILES): CCOC(=O)NC(=S)N=c1ccccn1-c1ccc(C(F)(F)F)nc1 [VI-1, Ethyl N-[1-[(6-trifluormethyl-3-pyridyl)]-2-pyridylidene]carbamothioylcarbamat]

chromatographic logP ([3]; pH 7.8, LogP-Wert): 1.28
Structure (SMILES): CCOC(=O)NC(=S)N=c1ccccn1-c1ccc(C(F)F)nc1 [VI-2, Ethyl N-[1-[(6-difluormethyl-3-pyridyl)]-2-pyridylidene]carbamothioylcarbamat]

chromatographic logP ([3]; pH 7.8, LogP-Wert): 0.7
Structure (SMILES): NC(=S)N=c1ccccn1-c1ccc(C(F)F)nc1 [VII-2, N-[1-[(6-Difluormethyl-3-pyridinyl)]-2(1H)-pyridinyliden]-thioharnstoff]
